Data: PubChem BioAssay (NCI)
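Cells were grown in 96-well plates and exposed to each compound for 48 hours at five concentrations; endpoints were interpolated linearly between bracketing concentrations, or set to the highest concentration if not reached. TGI marks complete inhibition of growth.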

Experiments:
Assay in all cases: NCI-60 cell line screen, 48 h
HCT-116 colon = system: HCT-116 colon
SF-539 CNS = system: SF-539 CNS
TK-10 renal = system: TK-10 renal
SNB-75 CNS = system: SNB-75 CNS
SK-OV-3 ovarian = system: SK-OV-3 ovarian
HT29 colon = system: HT29 colon
SF-295 CNS = system: SF-295 CNS
M14 melanoma = system: M14 melanoma
NCI-H460 lung = system: NCI-H460 lung
T-47D breast = system: T-47D breast
NCI-H226 lung = system: NCI-H226 lung
UO-31 renal = system: UO-31 renal
SK-MEL-2 melanoma = system: SK-MEL-2 melanoma
LOX IMVI melanoma = system: LOX IMVI melanoma
SK-MEL-28 melanoma = system: SK-MEL-28 melanoma
HCT-15 colon = system: HCT-15 colon
MOLT-4 leukemia = system: MOLT-4 leukemia
IGROV1 ovarian = system: IGROV1 ovarian
NCI/ADR-RES ovarian = system: NCI/ADR-RES ovarian
CAKI-1 renal = system: CAKI-1 renal
HL-60(TB) leukemia = system: HL-60(TB) leukemia
HS 578T breast = system: HS 578T breast
PC-3 prostate = system: PC-3 prostate
HOP-62 NSCLC = system: HOP-62 NSCLC
OVCAR-8 ovarian = system: OVCAR-8 ovarian
RPMI-8226 leukemia = system: RPMI-8226 leukemia
OVCAR-3 ovarian = system: OVCAR-3 ovarian
BT-549 breast = system: BT-549 breast
SF-268 CNS = system: SF-268 CNS
SR leukemia = system: SR leukemia
HCC-2998 colon = system: HCC-2998 colon
UACC-62 melanoma = system: UACC-62 melanoma
MDA-MB-231 breast = system: MDA-MB-231 breast
OVCAR-4 ovarian = system: OVCAR-4 ovarian
HOP-92 NSCLC = system: HOP-92 NSCLC
A549 NSCLC = system: A549 NSCLC
SNB-19 CNS = system: SNB-19 CNS
EKVX NSCLC = system: EKVX NSCLC
UACC-257 melanoma = system: UACC-257 melanoma
MDA-N = system: MDA-N
CCRF-CEM leukemia = system: CCRF-CEM leukemia
RXF 393 renal = system: RXF 393 renal
U251 CNS = system: U251 CNS
A498 renal = system: A498 renal
KM12 colon = system: KM12 colon
ACHN renal = system: ACHN renal
MDA-MB-435 = system: MDA-MB-435
OVCAR-5 ovarian = system: OVCAR-5 ovarian
MCF7 breast = system: MCF7 breast
K-562 leukemia = system: K-562 leukemia
MALME-3M melanoma = system: MALME-3M melanoma
SW-620 colon = system: SW-620 colon
NCI-H23 lung = system: NCI-H23 lung
SN12C renal = system: SN12C renal
SK-MEL-5 melanoma = system: SK-MEL-5 melanoma
786-0 renal = system: 786-0 renal
COLO 205 colon = system: COLO 205 colon
NCI-H522 lung = system: NCI-H522 lung
DU-145 prostate = system: DU-145 prostate

Measured: TGI

O=[N+]([O-])c1ccc(Cl)c(C=NC23CC4CC(CC(C4)C2)C3)c1
> 7.79 µM: OVCAR-8 ovarian
4.46 µM: HL-60(TB) leukemia
> 10 µM: HCT-116 colon | TK-10 renal | SNB-75 CNS | SK-OV-3 ovarian | HT29 colon | SF-295 CNS | M14 melanoma | NCI-H460 lung | T-47D breast | NCI-H226 lung | UO-31 renal | SK-MEL-2 melanoma | LOX IMVI melanoma | SK-MEL-28 melanoma | HCT-15 colon | MOLT-4 leukemia | IGROV1 ovarian | NCI/ADR-RES ovarian | CAKI-1 renal | HS 578T breast | PC-3 prostate | HOP-62 NSCLC | RPMI-8226 leukemia | OVCAR-3 ovarian | BT-549 breast | SF-268 CNS | SR leukemia | HCC-2998 colon | UACC-62 melanoma | MDA-MB-231 breast | OVCAR-4 ovarian | HOP-92 NSCLC | A549 NSCLC | SNB-19 CNS | EKVX NSCLC | UACC-257 melanoma | MDA-N | CCRF-CEM leukemia | RXF 393 renal | U251 CNS | A498 renal | KM12 colon | ACHN renal | MDA-MB-435 | OVCAR-5 ovarian | MCF7 breast | K-562 leukemia | MALME-3M melanoma | SW-620 colon | NCI-H23 lung | SN12C renal | SK-MEL-5 melanoma | 786-0 renal | COLO 205 colon | NCI-H522 lung | DU-145 prostate
9.9 µM: SF-539 CNS

CC1(CCCO)CCCCCC(C)(CCCO)C1=O (stereo not given)
> 100 µM: HCT-116 colon | SNB-75 CNS | SK-OV-3 ovarian | HT29 colon | SF-295 CNS | M14 melanoma | NCI-H460 lung | T-47D breast | NCI-H226 lung | UO-31 renal | SK-MEL-2 melanoma | LOX IMVI melanoma | SK-MEL-28 melanoma | HCT-15 colon | MOLT-4 leukemia | IGROV1 ovarian | NCI/ADR-RES ovarian | CAKI-1 renal | HL-60(TB) leukemia | HS 578T breast | PC-3 prostate | HOP-62 NSCLC | OVCAR-8 ovarian | RPMI-8226 leukemia | OVCAR-3 ovarian | BT-549 breast | SF-268 CNS | SR leukemia | HCC-2998 colon | UACC-62 melanoma | MDA-MB-231 breast | OVCAR-4 ovarian | HOP-92 NSCLC | A549 NSCLC | SNB-19 CNS | EKVX NSCLC | UACC-257 melanoma | MDA-N | CCRF-CEM leukemia | RXF 393 renal | U251 CNS | A498 renal | KM12 colon | ACHN renal | MDA-MB-435 | OVCAR-5 ovarian | MCF7 breast | K-562 leukemia | MALME-3M melanoma | SW-620 colon | NCI-H23 lung | SN12C renal | SK-MEL-5 melanoma | 786-0 renal | COLO 205 colon | NCI-H522 lung | DU-145 prostate

CCOC(CCNCC(OCC)OCC)OCC
> 10 µM: HCT-116 colon | SF-539 CNS | TK-10 renal | SNB-75 CNS | SK-OV-3 ovarian | HT29 colon | SF-295 CNS | M14 melanoma | NCI-H460 lung | T-47D breast | NCI-H226 lung | SK-MEL-2 melanoma | LOX IMVI melanoma | SK-MEL-28 melanoma | HCT-15 colon | MOLT-4 leukemia | IGROV1 ovarian | NCI/ADR-RES ovarian | CAKI-1 renal | HL-60(TB) leukemia | HS 578T breast | PC-3 prostate | HOP-62 NSCLC | OVCAR-8 ovarian | RPMI-8226 leukemia | OVCAR-3 ovarian | BT-549 breast | SF-268 CNS | SR leukemia | HCC-2998 colon | UACC-62 melanoma | MDA-MB-231 breast | OVCAR-4 ovarian | HOP-92 NSCLC | A549 NSCLC | SNB-19 CNS | EKVX NSCLC | UACC-257 melanoma | MDA-N | CCRF-CEM leukemia | RXF 393 renal | U251 CNS | A498 renal | KM12 colon | ACHN renal | MDA-MB-435 | OVCAR-5 ovarian | MCF7 breast | K-562 leukemia | MALME-3M melanoma | NCI-H23 lung | SN12C renal | SK-MEL-5 melanoma | 786-0 renal | COLO 205 colon | NCI-H522 lung | DU-145 prostate

C=C(C)C(CC=C(C)C)CC12CC(CC=C(C)C)C(C)(C)C(CC=C(C)C)(C(=O)C(Cc3ccc(O)c(O)c3)=C1O)C2=O (stereo not given)
> 100 µM: HCT-116 colon | SF-539 CNS | TK-10 renal | SNB-75 CNS | SK-OV-3 ovarian | HT29 colon | SF-295 CNS | M14 melanoma | NCI-H460 lung | T-47D breast | NCI-H226 lung | UO-31 renal | LOX IMVI melanoma | SK-MEL-28 melanoma | HCT-15 colon | MOLT-4 leukemia | IGROV1 ovarian | NCI/ADR-RES ovarian | CAKI-1 renal | HL-60(TB) leukemia | HS 578T breast | PC-3 prostate | HOP-62 NSCLC | OVCAR-8 ovarian | RPMI-8226 leukemia | OVCAR-3 ovarian | BT-549 breast | SF-268 CNS | SR leukemia | HCC-2998 colon | UACC-62 melanoma | MDA-MB-231 breast | OVCAR-4 ovarian | HOP-92 NSCLC | A549 NSCLC | SNB-19 CNS | EKVX NSCLC | UACC-257 melanoma | MDA-N | CCRF-CEM leukemia | RXF 393 renal | U251 CNS | A498 renal | KM12 colon | ACHN renal | MDA-MB-435 | OVCAR-5 ovarian | MCF7 breast | K-562 leukemia | MALME-3M melanoma | SW-620 colon | NCI-H23 lung | SK-MEL-5 melanoma | 786-0 renal | COLO 205 colon | NCI-H522 lung | DU-145 prostate
